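Grown in 96-well plates, cells were treated for 48 hours with each compound at five concentrations. Insufficient inhibition: endpoint recorded as highest concentration tested. At the TGI there is no net growth.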 Some results are limits rather than exact numbers.

Some test systems named below: ACHN renal; CCRF-CEM leukemia; HCC-2998 colon; OVCAR-3 ovarian; SF-539 CNS; SK-MEL-2 melanoma; SK-MEL-28 melanoma; TK-10 renal; U251 CNS; UACC-257 melanoma; UACC-62 melanoma; HCT-15 colon; SF-268 CNS; SF-295 CNS.
What all share (test): growth of human tumour cells (NCI), 48 h

As to `COC(=O)NC12CC3CC(CC(F)(C3)C1)C2`, the TGI in the test on ACHN renal, with CCRF-CEM leukemia, in the test on HCC-2998 colon, with OVCAR-3 ovarian, in the test with SF-539 CNS and with SK-MEL-2 melanoma was above 100 µM in each case. Moreover, the TGI in the test on SK-MEL-28 melanoma, in the test on TK-10 renal, with U251 CNS, in the test on UACC-257 melanoma and in the test with UACC-62 melanoma was above 100 µM throughout.
Take `CN(C)CC1CCCC(CN(C)C)C1=NOC(=O)c1ccccc1` (centres undefined): the TGI with ACHN renal, in the test on CCRF-CEM leukemia, with HCC-2998 colon, in the test on HCT-15 colon, in the test on OVCAR-3 ovarian and with SF-268 CNS was above 100 µM throughout. Besides, the TGI in the test with SF-295 CNS, with SF-539 CNS, in the test on SK-MEL-2 melanoma, with SK-MEL-28 melanoma, in the test with TK-10 renal and with U251 CNS was above 100 µM each time. Moreover, the TGI with UACC-257 melanoma and in the test with UACC-62 melanoma was above 100 µM in each case.
Consider `COc1ccc(N2C(=O)C3c4[nH]c5ccccc5c4C4CC(C)CC(C)C4C3C2=O)cc1` (centres undefined), for which the TGI in the test on ACHN renal, in the test on CCRF-CEM leukemia, in the test on HCC-2998 colon, in the test on HCT-15 colon, in the test on SF-268 CNS and in the test with SF-295 CNS was above 100 µM throughout. The TGI with SF-539 CNS, with SK-MEL-28 melanoma, in the test on U251 CNS, in the test on UACC-257 melanoma and in the test on UACC-62 melanoma was above 100 µM throughout.
Turning to `COC(=O)NN=C1C(C)(C)C(=O)C1(C)C`, the TGI in the test with ACHN renal, in the test with CCRF-CEM leukemia, in the test on HCC-2998 colon, in the test with OVCAR-3 ovarian, in the test on SF-268 CNS and in the test on SF-295 CNS was above 100 µM each time. For the same compound, the TGI with SF-539 CNS, in the test with SK-MEL-2 melanoma, in the test with SK-MEL-28 melanoma, in the test on TK-10 renal, in the test with U251 CNS and in the test on UACC-257 melanoma was above 100 µM in each case. In addition, the TGI in the test with UACC-62 melanoma is above 100 µM.
With `CCCCCCCCCCCCCCCCOCC(CP(=O)([O-])OCC[n+]1ccccc1)OC` (centres undefined), the TGI in the test on CCRF-CEM leukemia amounted to 25.6 µM; in the test on HCC-2998 colon, 7.4 µM; in the test with OVCAR-3 ovarian, 27.1 µM; in the test on SF-268 CNS, 24.9 µM; with SF-295 CNS it was 15.4 µM; in the test with SF-539 CNS, 28.4 µM. The TGI in the test on SK-MEL-2 melanoma turned out to be 31.9 µM; in the test with SK-MEL-28 melanoma, 32.2 µM; in the test on TK-10 renal, 8.09 µM; in the test on UACC-257 melanoma, 28.8 µM; in the test with UACC-62 melanoma, 24.5 µM.
As to `CC(O)c1ccc[n+](Cc2ccccc2)c1` (centres undefined), the TGI in the test on ACHN renal, in the test on CCRF-CEM leukemia, in the test with HCC-2998 colon, in the test on HCT-15 colon, with OVCAR-3 ovarian and in the test on SF-268 CNS was above 400 µM in each case. The TGI in the test with SF-295 CNS, in the test with SF-539 CNS, with SK-MEL-2 melanoma, with SK-MEL-28 melanoma, in the test with TK-10 renal and in the test with U251 CNS was above 400 µM in each case. Besides, the TGI in the test on UACC-257 melanoma and in the test on UACC-62 melanoma was above 400 µM throughout.
On to `O=C(c1ccccc1)[C@@H]1C[C@H](Sc2ccccc2)c2cc(Cl)ccc2N1`, for which the TGI is above 100 µM in the test on ACHN renal; 51.8 µM in the test with HCC-2998 colon; above 100 µM with HCT-15 colon; 52.2 µM in the test on OVCAR-3 ovarian; 48.4 µM in the test with SF-268 CNS; 92.5 µM in the test with SF-295 CNS. The TGI in the test on SF-539 CNS worked out at 33.5 µM; in the test on SK-MEL-2 melanoma, 97.6 µM; in the test on SK-MEL-28 melanoma, 58.9 µM; in the test on TK-10 renal, 79.6 µM; in the test on U251 CNS, 60.1 µM; with UACC-257 melanoma it was 37.4 µM. For the same compound, the TGI in the test with UACC-62 melanoma came out at 51.6 µM.
Turning to `Cn1ccc2c(C(=O)c3ccccc3)cccc2c1=O`, the TGI in the test with ACHN renal, in the test with CCRF-CEM leukemia, in the test with HCC-2998 colon, in the test on HCT-15 colon, with OVCAR-3 ovarian and in the test with SF-268 CNS was above 100 µM in each case. The TGI with SF-295 CNS was 66.9 µM; with SF-539 CNS it was above 100 µM; in the test on SK-MEL-2 melanoma, above 100 µM; in the test on SK-MEL-28 melanoma it was above 100 µM; with TK-10 renal, above 100 µM; in the test on UACC-257 melanoma, above 100 µM. In the test on UACC-62 melanoma, the TGI was above 100 µM.
On to `N#CCCN(c1ccc(C=Nc2ccccc2Cl)cc1)S(=O)(=O)c1ccccc1`, for which the TGI with ACHN renal, in the test on HCC-2998 colon, with HCT-15 colon, with OVCAR-3 ovarian, in the test on SF-268 CNS and in the test with SF-295 CNS was above 100 µM in each case. Further, the TGI in the test with SF-539 CNS, with SK-MEL-2 melanoma, in the test on SK-MEL-28 melanoma, in the test with TK-10 renal, with U251 CNS and in the test on UACC-257 melanoma was above 100 µM each time. Also, the TGI in the test on UACC-62 melanoma was above 100 µM.
As for `O=C(O)CCc1cccc2c1oc1c(CCC(=O)O)cccc12`, the TGI in the test with ACHN renal, with CCRF-CEM leukemia, in the test on HCC-2998 colon, in the test with HCT-15 colon, in the test on OVCAR-3 ovarian and with SF-268 CNS was above 100 µM throughout. Further, the TGI in the test on SF-295 CNS, in the test on SF-539 CNS, in the test on SK-MEL-2 melanoma, with SK-MEL-28 melanoma, in the test with TK-10 renal and with U251 CNS was above 100 µM in each case. The TGI in the test on UACC-257 melanoma and in the test on UACC-62 melanoma was above 100 µM throughout.
For the compound `CC(C)C(Sc1nc(-c2ccccc2)c(-c2ccccc2)[nH]1)C(=O)NN` (centres undefined), the TGI with ACHN renal, in the test with CCRF-CEM leukemia, with HCT-15 colon, with OVCAR-3 ovarian, with SF-268 CNS and in the test with SF-295 CNS was above 100 µM throughout. The TGI with SF-539 CNS, in the test on SK-MEL-2 melanoma, in the test with SK-MEL-28 melanoma, in the test with TK-10 renal, in the test on U251 CNS and in the test with UACC-257 melanoma was above 100 µM in each case.

Values taken from PubChem BioAssay (NCI).
